pIC50: −log10 of the molar value.
Target: T1, NaV 1.7 (Homo sapiens, UniProt Q15858)
T1 construct: expressed in transfected cells; host or cells: HEK cells
Experiment: E-VIPR optical membrane potential assay with electrical stimulation
Type: cell-based
Details: active against one or more sodium channels; assay/subtype not specified in Table 4; read-out: IC50 Binned Activity Data
Method in brief: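 HEK cells expressing human NaV1.7, loaded with CC2-DMPE/DiSBAC6(3) FRET dyes, then exposed to compounds for 20-35 min at room temperature (0.625% DMSO). Electrical stimulation applied for 9 s with 400 Hz scanning. Read-out is the background-subtracted 460/580 nm emission ratio, normalized.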

T1 sequence (Q15858 whole entry): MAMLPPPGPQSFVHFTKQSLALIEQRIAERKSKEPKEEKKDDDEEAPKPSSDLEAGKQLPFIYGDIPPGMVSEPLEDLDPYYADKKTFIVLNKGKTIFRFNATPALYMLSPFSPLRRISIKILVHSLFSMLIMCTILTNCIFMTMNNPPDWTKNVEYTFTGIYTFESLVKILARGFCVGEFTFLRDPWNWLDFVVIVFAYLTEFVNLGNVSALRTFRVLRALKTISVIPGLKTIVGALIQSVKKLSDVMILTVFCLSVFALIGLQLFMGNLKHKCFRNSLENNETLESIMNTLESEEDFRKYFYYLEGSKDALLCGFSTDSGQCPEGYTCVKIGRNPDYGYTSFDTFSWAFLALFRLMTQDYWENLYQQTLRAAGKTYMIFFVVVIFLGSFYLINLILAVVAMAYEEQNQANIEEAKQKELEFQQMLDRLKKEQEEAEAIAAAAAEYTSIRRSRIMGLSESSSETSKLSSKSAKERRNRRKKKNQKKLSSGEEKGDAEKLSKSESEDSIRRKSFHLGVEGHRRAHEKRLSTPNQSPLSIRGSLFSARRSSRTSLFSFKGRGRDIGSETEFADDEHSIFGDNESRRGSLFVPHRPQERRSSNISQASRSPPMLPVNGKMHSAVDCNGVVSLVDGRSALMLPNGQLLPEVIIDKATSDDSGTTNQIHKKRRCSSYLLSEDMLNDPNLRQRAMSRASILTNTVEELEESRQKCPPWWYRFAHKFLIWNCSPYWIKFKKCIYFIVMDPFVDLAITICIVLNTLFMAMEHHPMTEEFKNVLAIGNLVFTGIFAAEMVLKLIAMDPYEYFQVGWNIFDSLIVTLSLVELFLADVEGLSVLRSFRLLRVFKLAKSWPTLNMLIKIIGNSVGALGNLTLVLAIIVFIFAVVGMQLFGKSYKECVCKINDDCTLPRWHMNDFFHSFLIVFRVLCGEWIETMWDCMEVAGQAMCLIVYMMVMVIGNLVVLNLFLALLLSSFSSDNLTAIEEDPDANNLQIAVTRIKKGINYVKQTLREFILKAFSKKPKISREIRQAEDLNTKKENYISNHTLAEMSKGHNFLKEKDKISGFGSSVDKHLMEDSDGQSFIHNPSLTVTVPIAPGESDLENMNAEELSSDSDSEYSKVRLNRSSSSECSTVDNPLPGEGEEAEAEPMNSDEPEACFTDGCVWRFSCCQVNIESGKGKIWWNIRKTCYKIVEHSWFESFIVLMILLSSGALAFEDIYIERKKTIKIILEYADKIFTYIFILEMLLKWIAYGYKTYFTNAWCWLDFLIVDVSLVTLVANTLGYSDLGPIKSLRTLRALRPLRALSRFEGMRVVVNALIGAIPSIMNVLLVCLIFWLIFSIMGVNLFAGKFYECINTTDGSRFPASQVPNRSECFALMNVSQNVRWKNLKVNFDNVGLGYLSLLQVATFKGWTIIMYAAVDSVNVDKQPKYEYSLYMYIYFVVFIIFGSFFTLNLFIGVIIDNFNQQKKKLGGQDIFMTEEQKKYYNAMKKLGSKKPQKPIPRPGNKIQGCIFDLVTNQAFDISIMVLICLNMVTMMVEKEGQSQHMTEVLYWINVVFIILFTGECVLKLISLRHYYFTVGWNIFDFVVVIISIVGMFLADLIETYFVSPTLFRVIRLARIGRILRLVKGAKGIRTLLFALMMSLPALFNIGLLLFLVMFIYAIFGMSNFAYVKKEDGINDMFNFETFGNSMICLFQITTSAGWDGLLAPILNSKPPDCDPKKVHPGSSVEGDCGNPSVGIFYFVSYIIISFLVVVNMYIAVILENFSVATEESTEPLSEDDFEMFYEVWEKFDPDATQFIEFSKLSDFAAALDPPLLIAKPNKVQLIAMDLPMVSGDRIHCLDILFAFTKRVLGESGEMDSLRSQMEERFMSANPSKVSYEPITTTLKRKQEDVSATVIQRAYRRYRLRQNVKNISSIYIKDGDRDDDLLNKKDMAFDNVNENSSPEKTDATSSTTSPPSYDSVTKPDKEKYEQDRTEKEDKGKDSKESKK

| Compound | pIC50 |
| --- | --- |
| COc1cc(C(=O)N2CCC3(c4ccc(F)cc4)CC3C2)ccc1OCCOC(F)(F)F (stereo not drawn) [Compound 300] | ≥ 5.70 |
| O=C(c1ccc(OCCOC(F)(F)F)c(Cl)c1)N1CCC2(c3ccc(F)cc3)CC2C1 (stereo not drawn) [Compound 301] | ≥ 5.70 |
| [2H]C1([2H])OC2CN(C(=O)c3ccc(OCCOC(F)(F)F)c(OC)c3)CC[C@]2(c2ccccc2)O1 (stereo partly drawn) [Compound 302] | ≥ 5.70 |
| [2H]C1([2H])OC2CN(C(=O)c3ccc(OCCOC(F)(F)F)c(C)n3)CC[C@]2(c2ccccn2)O1 (stereo partly drawn) [Compound 303] | ≥ 5.70 |
| [2H]C1([2H])OC2CN(C(=O)c3ccc(OCCOC(F)(F)F)c(Cl)c3)CC[C@]2(c2ccccn2)O1 (stereo partly drawn) [Compound 304] | ≥ 5.70 |
| [2H]C1([2H])OC2CN(C(=O)c3ccc(OCCOC(F)(F)F)c(OC)c3)CC[C@]2(c2ccccn2)O1 (stereo partly drawn) [Compound 305] | ≥ 5.70 |
| [2H]C1([2H])OC2CN(C(=O)c3ccc(OCCOC(F)(F)F)c(C)n3)CC[C@]2(c2cccc(F)c2)O1 (stereo partly drawn) [Compound 306] | ≥ 5.70 |

Next, values leading:

| pIC50 | Compound |
| --- | --- |
| ≥ 5.70 | [2H]C1([2H])O[C@@H]2CN(C(=O)c3ccc(OC(C)C(F)(F)F)c(OC)c3)CC[C@]2(c2cccc(F)c2)O1 (stereo partly drawn) [Compound 307] |
| ≥ 5.70 | [2H]C1([2H])OC2CN(C(=O)c3ccc(OCCOC(F)(F)F)c(C)n3)CC[C@]2(c2cc(F)cc(F)c2)O1 (stereo partly drawn) [Compound 308] |
| ≥ 5.70 | [2H]C1([2H])OC2CN(C(=O)c3ccc(OCCOC(F)(F)F)c(OC)n3)CC[C@]2(c2cc(F)cc(F)c2)O1 (stereo partly drawn) [Compound 309] |
| ≥ 5.70 | COc1cc(C(=O)N2CC[C@]3(c4ccccn4)OC(C)(C)OC3C2)ccc1OCCOC(F)(F)F (stereo partly drawn) [Compound 310] |
| ≥ 5.70 | CC(Oc1ccc(C(=O)N2CC[C@]3(c4ccccn4)OCOC3C2)cc1C(F)(F)F)C(F)(F)F (stereo partly drawn) [Compound 311] |
| ≥ 5.70 | O=C(c1ccc(OCC2CC(F)(F)C2)c(C(F)(F)F)c1)N1CC[C@]2(c3ccccn3)OCOC2C1 (stereo partly drawn) [Compound 312] |
| 5.30 to 5.70 | CC(F)(F)COc1ccc(C(=O)N2CC[C@]3(c4ccccn4)OCOC3C2)cc1C(F)(F)F (stereo partly drawn) [Compound 313] |
| ≥ 5.70 | COc1cc(C(=O)N2CC[C@]3(c4cccc(OCC(C)C)n4)OCOC3C2)ccc1OCCOC(F)(F)F (stereo partly drawn) [Compound 314] |

— patent publication US10233191B2, “Fused piperidine amides as modulators of ion channels” (Vertex Pharmaceuticals Incorporated, priority 2013, dated 2019)
